Measurements taken from patent US20210369720A1, “SYNERGISTIC COMPOSITION HAVING NEUROPROTECTIVE PROPERTIES AND METHODS OF USE THEREOF” (Rutgers, The State University of New Jersey, priority 2018, published 2021).

How the values were obtained:
[1] = tested on: dopamine; experiment: Striatal dopamine content by HPLC-MS, α-Syn PFF inoculated WT mice; type: in vivo; details: each compound alone, EHT 12 mg/kg/day or caffeine 50 mg/kg/day, vs untreated α-Syn PFF inoculated mice
Excerpt: (§1) Thy1-α-synuclein transgenic mice (Syn^Tg) on BDF1 background overexpressing human wild-type α-synuclein under the control of the Thy1 promoter were maintained by mating heterozygous transgenic females with WT BDF1 males (Rockenstein E, et al. (2002) Differential neuropathological alterations in transgenic mice expressing alpha-synuclein from the platelet-derived growth factor and Thy-1 promoters. J Neurosci Res 68(5):568-578). BDF1 mice (mixed C57BL/6-DBA/2) were generated every three months by mating female C57BL/6 (The Jackson Laboratory) and male DBA/2 mice (Charles River). Experiments were performed with male transgenic mice and their WT littermates. […] Wild-type littermates received regular water and control chow. […] At two months of age, mice were inoculated with α-Syn PFF unilaterally in the striatum. These treatments continued throughout the experiment until animals were sacrificed. Mice were weighed and their food and water intake was quantified weekly. Animals were housed 2-5/cage in an AAALAC approved facility in a temperature- and humidity-controlled environment under a 12-hour light/dark cycle and were maintained on a diet of lab chow and water ad libitum. […]

[2] = tested on: Syn^Tg mice; experiment: Wire Hang test, Syn^Tg mice; type: in vivo; details: EHT 12 mg/kg/day in chow and/or caffeine 50 mg/kg/day in drinking water from weaning until six months of age, vs untreated Syn^Tg mice
Excerpt: as §1

[3] = tested on: PP2A; experiment: Western blot of PP2A methylation, ipsilateral striatal tissue lysates of α-Syn PFF inoculated mice; type: in vivo; details: EHT 12 mg/kg/day and/or caffeine 50 mg/kg/day, vs untreated α-Syn PFF inoculated mice
Excerpt: (§2) Thy1-α-synuclein transgenic mice (Syn^Tg) on BDF1 background overexpressing human wild-type α-synuclein under the control of the Thy1 promoter were maintained by mating heterozygous transgenic females with WT BDF1 males (Rockenstein E, et al. (2002) Differential neuropathological alterations in transgenic mice expressing alpha-synuclein from the platelet-derived growth factor and Thy-1 promoters. J Neurosci Res 68(5):568-578). BDF1 mice (mixed C57BL/6-DBA/2) were generated every three months by mating female C57BL/6 (The Jackson Laboratory) and male DBA/2 mice (Charles River). Experiments were performed with male transgenic mice and their WT littermates. […] Wild-type littermates received regular water and control chow. […] At two months of age, mice were inoculated with α-Syn PFF unilaterally in the striatum. These treatments continued throughout the experiment until animals were sacrificed. Mice were weighed and their food and water intake was quantified weekly. Animals were housed 2-5/cage in an AAALAC approved facility in a temperature- and humidity-controlled environment under a 12-hour light/dark cycle and were maintained on a diet of lab chow and water ad libitum. All animal procedures were approved by the Rutgers-Robert Wood Johnson Medical School Institutional Animal Care and Use Committee and were performed according to the National Institutes of Health Guide for the Care and Use of Laboratory Animals.
α-Syn PFF solution was sonicated at 60% amplitude 30 times (0.5 sec on, 0.5 sec off). During the stereotactic surgery, two month old WT C57BL/6 mice were anesthetized by Ketamine/xylazine (90/4.5 mg/kg, i.p., Ketaset from Zoetis, and Anased from Akorn) and positioned in a digital stereotaxic apparatus (Stoelting, Wood Dale, Ill.). […]
(§3) Human neuroblastoma SH-SY5Y cells were cultured in DMEM-F12 with 10% FBS. […] Protein concentration was determined by bicinchonic acid (BCA) method (Pierce), equal amount of protein was separated on 5-20% SDS-PAGE gel (Genescript) and transferred to nitrocellulose or PVDF membrane (Biorad). […]

[4] = tested on: TH positive dopaminergic neurons of the substantia nigra; experiment: Nigral TH positive neuron count, α-Syn PFF inoculated WT mice; type: in vivo; details: each compound individually, PFF alone reduced neurons by 51% vs PBS
Excerpt: as §1

[5] = tested on: MAP2; experiment: Immunofluorescence staining of MAP2 in the cortex, Syn^Tg mice; type: in vivo; details: EHT 12 mg/kg/day and/or caffeine 50 mg/kg/day until six months of age
Excerpt: as §1

[6] = tested on: phosphorylated α-synuclein (p-α-Syn); experiment: Immunohistochemical staining of p-α-Syn, α-Syn PFF inoculated WT mice; type: in vivo; details: EHT 12 mg/kg/day and/or caffeine 50 mg/kg/day, vs untreated α-Syn PFF inoculated mice
Excerpt: as §2
α-Syn PFF solution was sonicated at 60% amplitude 30 times (0.5 sec on, 0.5 sec off). During the stereotactic surgery, two month old WT C57BL/6 mice were anesthetized by Ketamine/xylazine (90/4.5 mg/kg, i.p., Ketaset from Zoetis, and Anased from Akorn) and positioned in a digital stereotaxic apparatus (Stoelting, Wood Dale, Ill.). A midline sagittal incision was made in the scalp, and a hole was drilled in the skull over the right striatum according to the coordinates below. All injections were made using a Hamilton neuros syringe equipped with a 33 gauge needle and attached to a Quintessential Stereotaxic Injector (Stoelting, Wood Dale, Ill.). A total of 5∝g/2.5 ul of α-Syn PFF was infused in the dorsal striatum (+0.2 mm relative to Bregma, +2.0 mm from midline, +2.6 mm beneath the dura) at a delivery rate of 0.2∝l/min (61). The needle was kept in place for 5 min following the infusion to prevent reflux before withdrawing.
Immunohistochemical analyses were performed as described previously (Lee et al., 2011; 2012). Mice were perfused transcardially with PBS, and brains were removed and post-fixed in 10% formalin at 4° C. overnight. Fixed brains were then sectioned coronally in 30 am thickness using a cryostat and collected as sets of slices with the same interval. Free-floating sections were blocked by 1% BSA and 0.2% Triton X100 in PBS. Sections were then incubated with primary antibody overnight at 4° C. and biotinylated secondary antibody for 1 hour at room temperature.
Vectastain elite ABC kit (Vector Laboratories, Burlingame, Calif.) and 3,3′-diaminobenzidine (Sigma-Aldrich) were used for amplifying and color development. Images were captured by Nikon Eclipse 55i. Staining intensity and phosphorylated α-synuclein (p-α-Syn) aggregate counts were obtained by Image Pro Plus. Intensity calibration was set to the level of a blank area in each image. HSI (hue, saturation and intensity) was used for the color selection with the standard parameters of H: 0-30, S: 0-255 and I: 0-160. […]

[7] = tested on: A53T mutant α-synuclein fibril injections in the striatum; details: mice, chronic caffeine treatment; cited from earlier work
[8] = tested on: PP2A; experiment: Western blot of PP2A methylation in SH-SY5Y cells challenged with α-Syn PFF; type: cell-based, Human; details: SH-SY5Y cells challenged with mouse α-Syn PFF for 7 days; caffeine and/or EHT added to the medium
Protocol: (§4) Human neuroblastoma SH-SY5Y cells were cultured in DMEM-F12 with 10% FBS. At 50% confluency, cells were treated with 1 gg/ml mouse α-Syn PFF in DMEM-F12 with 1% FBS for 7 days. Medium was refreshed every 3 days. Cell harvesting was done with 2% SDS in PBS supplemented with protease inhibitor (Millipore) and phosphatase inhibitor (Sigma-Aldrich). Lysates were sonicated and boiled at 95° C. for 5 minutes. Protein concentration was determined by bicinchonic acid (BCA) method (Pierce), equal amount of protein was separated on 5-20% SDS-PAGE gel (Genescript) and transferred to nitrocellulose or PVDF membrane (Biorad). Following transfer, membranes were blocked for 1 hour at room temperature in blocking buffer (Li-Cor) or 5% (w/v) BSA/TBS-Tween 0.1% (v/v). Primary antibodies were diluted in blocking buffer or 5% (w/v) BSA/TBS-Tween 0.1% (v/v) and incubated with the membranes at 4° C. overnight. Membranes were washed three times in TBS-Tween and incubated in diluted IRDye 800CW or HRP conjugated secondary antibody for 1 hour at room temperature. Following washing, membranes were scanned by Li-Cor Odyssey CLx infrared imaging system or treated with the Western Lightning ECL-plus reagents (PerkinElmer) and exposed to autoradiography films (LabScientific).

[9] = tested on: α-Syn PFF inoculated WT mice; experiment: Morris Water Maze, α-Syn PFF inoculated WT mice; type: in vivo; details: EHT 12 mg/kg/day and/or caffeine 50 mg/kg/day, 6 months post-inoculation, test also not affected by PFF inoculation
Excerpt: as §1

[10] = tested on: SH-SY5Y cells; experiment: Cytotoxicity of α-Syn PFF by propidium iodide (PI) exclusion in SH-SY5Y cells; type: cell-based, Human; details: SH-SY5Y cells challenged with mouse α-Syn PFF for seven days; vs untreated α-Syn PFF-challenged cells (2.5 fold increase of PI positive cells)
[11] = tested on: phosphorylated α-synuclein (p-α-Syn); experiment: Western blot of p-α-Syn in cortical tissue lysates, Syn^Tg mice; type: in vivo; details: EHT 12 mg/kg/day and/or caffeine 50 mg/kg/day until six months of age, vs untreated Syn^Tg mice
Excerpt: as §1, with “weekly.” for “weekly. Animals were housed 2-5/cage in an AAALAC approved facility in a temperature- and humidity-controlled environment under a 12-hour light/dark cycle and were maintained on a diet of lab chow and water ad libitum.”
as §3

[12] = tested on: Tyrosine hydroxylase (TH); experiment: Striatal TH staining, α-Syn PFF inoculated WT mice; type: in vivo; details: EHT 12 mg/kg/day and/or caffeine 50 mg/kg/day, vs untreated α-Syn PFF inoculated mice
Excerpt: as §1

[13] = tested on: Syn^Tg mice; experiment: Rotarod, Syn^Tg mice; type: in vivo; details: EHT 12 mg/kg/day in chow and/or caffeine 50 mg/kg/day in drinking water from weaning until six months of age, vs untreated Syn^Tg mice
Excerpt: as §1

[14] = tested on: Syn^Tg mice; experiment: Morris Water Maze, Syn^Tg mice; type: in vivo; details: EHT 12 mg/kg/day in chow and/or caffeine 50 mg/kg/day in drinking water from weaning until six months of age, vs untreated Syn^Tg mice
Excerpt: as §1

[15] = tested on: α-Syn PFF inoculated WT mice; experiment: Nesting behavior, α-Syn PFF inoculated WT mice; type: in vivo; details: EHT 12 mg/kg/day in diet and/or caffeine 50 mg/kg/day in drinking water from weaning, 6 months post-inoculation
Excerpt: as §1

[16] = tested on: Syn^Tg mice; experiment: Nesting behavior, Syn^Tg mice; type: in vivo; details: EHT 12 mg/kg/day in chow and/or caffeine 50 mg/kg/day in drinking water from weaning until six months of age, vs untreated Syn^Tg mice
Excerpt: as §1

[17] = tested on: α-Syn PFF inoculated WT mice; experiment: Wire Hang test, α-Syn PFF inoculated WT mice; type: in vivo; details: EHT 12 mg/kg/day in diet and/or caffeine 50 mg/kg/day in drinking water from weaning, 6 months post-inoculation
Excerpt: as §1

[18] = tested on: PP2A; experiment: Western blot of PP2A methylation, striatal tissue lysates of Syn^Tg mice; type: in vivo; details: normalized to total PP2A, EHT 12 mg/kg/day and/or caffeine 50 mg/kg/day
Excerpt: as §2, §4

[19] = tested on: α-Syn PFF inoculated WT mice; experiment: Rotarod, α-Syn PFF inoculated WT mice; type: in vivo; details: EHT 12 mg/kg/day in diet and/or caffeine 50 mg/kg/day in drinking water from weaning, 6 months post-inoculation
Excerpt: as §1

[20] = tested on: p-α-Syn; experiment: Western blot of p-α-Syn in SH-SY5Y cells challenged with α-Syn PFF; type: cell-based, Human; details: SH-SY5Y cells challenged with mouse α-Syn PFF for 7 days; caffeine and/or EHT added to the medium
Protocol: as §4

Cn1c(=O)c2c(ncn2C)n(C)c1=O [Caffeine, 1,3,7-trimethylxanthine, reference compound]
dopamine (DA) content in lysates of the ipsilateral striatum, benefit in words [1]: did not have a significant benefit
performance on the wire hang test [2]: did not show any improvement
methyl-PP2A levels [3]: insignificant increase
prevention of the reduction of TH positive dopaminergic neurons of the substantia nigra [4]: did not prevent this reduction
MAP2 in the cortex (neuritic integrity) [5]: did not improve this profile
p-α-Syn in the contralateral striatum [6]: partially but insignificantly reduced
p-α-Syn in the ipsilateral striatum [6]: partially but insignificantly reduced
protection against A53T mutant α-synuclein fibril injections in the striatum [7]: protect
demethylated PP2A levels [8]: partially reversed this trend
methylated PP2A levels [8]: partially reversed this trend
Learning and memory task on the Morris Water Maze [9]: not affected
cytotoxicity of α-Syn PFF, number of PI positive cells (cell viability) [10]: modestly protected
p-α-Syn levels by Western blot, cortical tissue lysates [11]: no significant effect
TH staining of dopaminergic terminals in the striatum (ipsilateral and contralateral) [12]: no effect
performance on the rotarod [13]: did not show any improvement
performance on the Morris Water Maze [14]: did not show any improvement
nesting behavior (nest building) [15]: did not affect performance
nesting behavior [16]: did not show any improvement
performance on the wire hang test [17]: did not affect performance
Demethylated PP2A (demethyl-PP2A) levels [18]: not affected
Methylated PP2A (Methyl-PP2A) levels [18]: did not change
performance on the rotarod [19]: did not affect performance
p-α-Syn levels [20]: no effect
